USRE39485E1 (Aesgen, Inc., priority 1993, dated 2007)
Where “and” joins values, the source holds several entries; their conditions need not be identical. Equal values may be shown once.

Legend:
[1] = oral dose of 0.3 g/kg; cited from earlier work
[2] = tested on: adults undergoing allogeneic bone marrow transplantation for hematologic malignancies; settings: cited from earlier work
[3] = tested on: rats treated with methotrexate; settings: glutamine supplementation of an elemental diet; cited from earlier work
[4] = tested on: animals given methotrexate; settings: administered after methotrexate; cited from earlier work
[5] = tested on: patients experiencing mucositis of the oropharynx following a course of chemotherapy; test: Oral glutamine swish and swallow trial in patients with chemotherapy induced oral mucositis; format: in vivo, human; parameters: key to Maximum Grade of Mucositis: 0: no mucositis; 1: painful mucositis not necessitating a change in oral intake; 2A: painful mucositis restricting intake to soft foods; 2B: painful mucositis restricting oral intake to liquids; 3: mucositis preventing oral intake
From the text: Patients experiencing mucositis of the oropharynx following a course of chemotherapy were offered the opportunity to enter this study if no other clinical parameters precluded receiving the same chemotherapy doses during the next course of treatment. […] Other carriers, flavor enhancers, gums, and suspending agents known in the art may be employed. The suspension was stored in a refrigerator during use for a maximum of 1 month. […] The severity of mucositis was graded as: 0, no mucositis; 1, painful mucositis not necessitating a change in oral intake; 2A, painful mucositis restricting intake to soft foods; 2B, painful mucositis restricting oral intake to liquids; and 3, mucositis preventing oral intake (CALGB criteria). Maximum grade of mucositis and total number of days of mucositis were compared by the paired t-test. All patients gave written informed consent, and the trial was approved by the Institutional Review Board of the University of Minnesota. Ten adults, 5 men and 5 women, were entered in the study. […] One patient with AIDS and Kaposi's sarcoma was treated with doxorubicin by constant iv infusion over 5 days with bolus DTIC and vincristine. One patient with breast cancer was treated with doxorubicin, cyclophosphamide, and 5-FU, iv bolus.

[6] = 0.57 g/kg/day in parenteral nutrition solutions for 5 days; cited from earlier work
[7] = tested on: rats given abdominal radiotherapy; settings: glutamine group vs glycine enriched group; cited from earlier work
[8] = parenteral glutamine supplementation vs none

NC(=O)CC[C@H](N)C(=O)O [glutamine, L-glutamine]
clinical toxicity or measurable toxic metabolites (ammonia or glutamate) [1]: no evidence of clinical toxicity or generation of measurable toxic metabolites
severity of oral mucositis (stomatitis) ([2]; high dosage of intravenous glutamine vs no glutamine): no difference
episodes of clinical infections [2, 8]: fewer episodes of clinical infections
median hospitalization [2, 8]: shorter median hospitalization
nitrogen balance [2, 8]: better nitrogen balance
incidence of bacteremia [3]: lower incidence of bacteremia
mortality [3]: less mortaility
mucosal weight of the jejunum and colon [3]: increased mucosal weight of the jejunum and colon
survival [3]: longer survival
weight loss [3]: less weight loss
survival rate, enteral vs parenteral supplementation [4]: better survival rate
Subjective Improvement of Mucositis ([5]; Chemotherapy + Glutamine 2 gm/m^2 BID vs previous identical chemotherapy without glutamine, one line per patient (1-10)): Yes (9×) and No
Maximum Grade of Mucositis ([5]; chemotherapy + glutamine, L-glutamine 2 g/m^2 swish and swallow twice daily, one line per patient (1-10), CALGB criteria): 1 (7×) and 0 (3×)
toxicity of the glutamine ([5]; oral glutamine 2 g/m^2 twice daily, ambulatory patients): absence of any detectable toxicity
patients in whom the maximum grade of mucositis remained the same (grade 1) ([5]; with glutamine supplementation): 2/10
patients in whom the total number of days of mucositis decreased ([5]; with glutamine supplementation): 9/10
median score of maximum grade of mucositis ([5]; with glutamine supplementation (2 without), p=0.001): 1
total number of days of mucositis, mean (SEM) ([5]; with glutamine supplementation (10.1±1.2 without), p=0.001): 3.8 ± 1.0 days
patients in whom the maximum grade of mucositis decreased ([5]; with glutamine supplementation vs previous course, p=0.001): 8/10
patients in whom glutamine allowed chemotherapy doses that would otherwise have had to be reduced due to mucositis ([5]; with the addition of glutamine): 8/10
patients who felt that the mucositis was less severe ([5]; with the addition of glutamine): Nine of the 10
tolerability [6]: well tolerated
mucosal structure [7]: more normal mucosal structure
survival rate [7]: higher survival rate
